# Measurements published in patent publication US20240277767A1, “METHODS AND USES” (PROLEUKOCYTE AB, priority 2021, published 2024).
# What was measured:
# [1] = tested on: NK cells; assay: IFNγ release (ELISA) by pre-treated NK cells after H2O2 exposure; type: cell-based, human
# Protocol: (§1) Lymphocytes were pre-treated for 18 h with Auranofin (AUF, with the concentration 1 μg/mL for NK cells and 0.5 μg/mL for TIL, if not indicated differently), DL-Sulforaphane (SUL) or Dimethyl Fumarate (DMF) (all Sigma-Aldrich) at indicated concentrations.
# (§2) For Nrf2 inhibition, NK cells were treated with 50 μM ML-385 (Sigma-Aldrich) in parallel. For H2O2 treatment, lymphocyte cells were washed and resuspended to 1×10^6 cells/mL in medium and exposed to indicated H2O2 (Sigma-Aldrich) concentration for 1 h at 37° C. Cells were washed with medium and then used for further experiments. For monocyte experiments, autologous NK cell-monocytes or TIL-monocytes were used. NK cells/TIL were isolated and pre-treated with 0.5 μg/mL AUF, as described above, and co-cultured with unstimulated at the ratio, 1:2 M:NK, or stimulated monocytes at the ratio, 1:1 M:NK, if not indicated otherwise. Stimulated monocytes were activated with 100 ng/ml PMA for 1 min, washed and added at indicated ratio, the number of NK cell/TIL was kept constant. As control, H2O2 was used at indicated concentration. […]
# (§3) For cytokine release assay, NK cells and TIL were cultured with indicated tumour cells at the effector target ratio 4:1 (E:T) for 24 h in U-bottom plates. IFNγ secretion was measured using human IFN-γ ELISA development kit (Mabtech) following the manufacturer's instructions.
# [2] = tested on: ANRU TIL; assay: Viability of pre-treated ANRU TIL after H2O2 exposure (flow cytometry); type: cell-based, human; settings: 24 h co-culture with ANRU tumour cells, alive CD3+ T cells
# Protocol: as §1, §2
# All antibodies (see Table 1) and FACS reagents were used according to manufactures recommendation, if not stated otherwise. […] Samples were fixed with 2% PFA (Thermo scientific) for 15 min before acquired on a NovoCyte (ACEA Biosciences) and analysed using FlowJo Software (TreeStar).
# [3] = tested on: Nrf2 target genes (NQO1, HMOX1, TXNRD1, Keap1); assay: qPCR of classical Nrf2 target genes in NK cells; type: cell-based, human
# Protocol: Lymphocytes were pre-treated with AUF, SUL or DMF as described above. RNA was isolated using TRIzol™ Plus RNA Purification Kit (Invitrogen). cDNA was generated using the iScript™ cDNA Synthesis Kit (Bio-Rad) and qPCR was done using iTaq™ Universal SYBR® Green Supermix (Bio-Rad) in the CFX96 Touch Real-Time PCR Detection System (Bio-Rad). Fold change expression from untreated cells was calculated using the 2^-ΔΔCt formula with b-actin as reference gene. Evaluated genes were NAD(P)H Quinone Dehydrogenase 1 (NQO1), Kelch Like ECH Associated Protein 1 (Keap1), Heme Oxygenase 1 (HMOX1) and Thioredoxin Reductase 1 (TXNRD1).
# [4] = tested on: NK cells; assay: ADCC: NK cells with RAJI cells coated with Rituximab or Ofatumumab; type: cell-based, human
# Protocol: Lymphocytes were isolated and pre-treated when indicated, with compound and H2O2, as described above. For degranulation/measuring CD107a expression, NK cells were co-cultured with K562 tumour cells at an effector target ratio 1:1 in the presence of anti-CD107a in U-bottom plates. After 2 h, GolgiStop™ and GolgiPlug™ (BD Bioscience) were added and cells were harvested after an additional 4 h co-culture and stained for CD56 and CD3, as described above. For positive control, 25 ng/ml PMA (Sigma Aldrich) and 500 ng/mL Ionomycin (Sigma Aldrich) were added.
# For cytotoxic assay, a standard 4 h [Cr^51]-release assay was used. Briefly, tumour cells were harvested and labeled with 51Cr (PerkinElmer) and used as target cells. Effector cells, NK cells and T cells, were co-cultured in 96-well V-bottom plate with indicated tumour cells at the stated effector target ratio (E:T). The supernatant was collected onto LUMA plates (Perkin-Elmer) and radioactivity/tumour cell lysis was detected by MicroBeta2 (Perkin Elmer). Target cell killing measured by % specific lysis and calculated using the formula: ((experimental release-spontaneous release)/(maximum release-spontaneous release))*100.
# For analyzing ADCC, NK cells were cultured with RAJI cells and Rituximab (0.5 μg/mL, MabThera, Roche) or Ofatumumab (0.05 μg/mL, Arzerra, Novartis).
# [5] = tested on: ANRU TIL; assay: ANRU TIL exposed to activated autologous monocytes: spheroid caspase activation and IFNγ release; type: cell-based, human; settings: for Caspase activity in spheroids co-cultured with TIL exposed to activated autologous monocytes: highest dose of AUF, vs untreated control TIL
# Protocol: For Nrf2 inhibition, NK cells were treated with 50 μM ML-385 (Sigma-Aldrich) in parallel. For H2O2 treatment, lymphocyte cells were washed and resuspended to 1×10^6 cells/mL in medium and exposed to indicated H2O2 (Sigma-Aldrich) concentration for 1 h at 37° C. Cells were washed with medium and then used for further experiments. For monocyte experiments, autologous NK cell-monocytes or TIL-monocytes were used. NK cells/TIL were isolated and pre-treated with 0.5 μg/mL AUF, as described above, and co-cultured with unstimulated at the ratio, 1:2 M:NK, or stimulated monocytes at the ratio, 1:1 M:NK, if not indicated otherwise. Stimulated monocytes were activated with 100 ng/ml PMA for 1 min, washed and added at indicated ratio, the number of NK cell/TIL was kept constant. As control, H2O2 was used at indicated concentration. Cells were co-cultured for 2 h and then effector cells were stained for intracellular ROS (see flow cytometry) or used as effector cells in Cr^51 release assay (E:T ratio 10:1).
# as §3
# 5000 ANRU tumour cells were seeded per well in Ultra-Low Attachment 96-well plates (Corning Costar) in culture medium containing 2% Matrigel (Corning) for 3 days. 1×10^4AUF pre-treated TIL (see above), and spheroids were co-cultured and monitored for 48 h with the IncuCyte live cell imaging system (Essen Bioscience) in the presence of CellEvent™ Caspase 3/7 Green detection agent (Invitrogen).
# [6] = molecular target: T1, Nrf2 (Homo sapiens, UniProt Q16236); settings: presumably via inhibition of TrxR (Saei et al., 2020); cited from earlier work
# T1 sequence (Q16236 1-605): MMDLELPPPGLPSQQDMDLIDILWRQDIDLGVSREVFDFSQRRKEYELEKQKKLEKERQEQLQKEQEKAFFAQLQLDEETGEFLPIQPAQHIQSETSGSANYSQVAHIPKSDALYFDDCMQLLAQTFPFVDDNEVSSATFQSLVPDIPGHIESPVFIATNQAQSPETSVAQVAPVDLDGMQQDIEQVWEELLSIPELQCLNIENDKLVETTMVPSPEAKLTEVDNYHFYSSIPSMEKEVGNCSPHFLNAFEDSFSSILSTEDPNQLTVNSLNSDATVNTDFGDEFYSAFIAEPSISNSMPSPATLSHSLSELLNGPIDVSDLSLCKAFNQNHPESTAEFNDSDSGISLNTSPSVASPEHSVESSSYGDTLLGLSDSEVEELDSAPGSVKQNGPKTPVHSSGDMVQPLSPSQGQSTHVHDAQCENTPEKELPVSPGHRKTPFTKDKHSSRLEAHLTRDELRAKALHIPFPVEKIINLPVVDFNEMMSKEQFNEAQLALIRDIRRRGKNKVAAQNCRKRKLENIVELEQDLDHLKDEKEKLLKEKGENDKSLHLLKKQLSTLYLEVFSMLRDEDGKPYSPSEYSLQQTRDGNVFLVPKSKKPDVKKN
# [7] = upon addition of H2O2, vs control NK cells
smiles,measurement,setting,value
"CC(=O)OC[C@H]1O[C@@H]([S-])[C@H](OC(C)=O)[C@@H](OC(C)=O)[C@@H]1OC(C)=O.CCP(CC)CC.[Au+] [AUF, Auranofin]",Difference between 18 h and 24 h pre-treatment or 30 min pulse followed by 17.5 h incubation,"[1]; NK cells, IFNγ release",no difference
same,Cytokine release (IFNγ) capacity of NK cells following exposure to H2O2,[1]; vs untreated NK cells,improved
same,Viability of ANRU TIL after exposure to H2O2,[2],improved viability
same,Time of HMOX1 expression peak in NK cells,[3],6 h
same,HMOX1 expression in NK cells (fold change vs untreated),[3]; already at 1 h,pronounced upregulation
same,Expression of the other Nrf2 target genes in NK cells (fold change vs untreated),[3]; kinetic,more gradually increased over time
same,Ability of NK cells to degranulate in response to anti-CD20 coated RAJI cells,[4]; [7],significant increase
same,Ability of NK cells to lyse anti-CD20 coated RAJI cells,[4]; [7],significant increase
same,Capacity of NK cells to recognize anti-CD20 coated RAJI cells,[4]; without the presence of ROS,increased capacity to recognize the anti-CD20 coated RAJI cells
same,Cytokine release (IFNγ) by TIL impaired by monocyte derived ROS,[5]; 2D grown ANRU tumour cells,partially be rescued
same,Caspase activity in spheroids co-cultured with TIL exposed to activated autologous monocytes,[5],increased caspase activity
same,Caspase activity in spheroids co-cultured with TIL exposed to activated autologous monocytes,[5]; listed as auranofin,increased elimination of spheroid grown tumour cells
same,Activation of Nrf2,[6],strong activator of Nfr2
